assay: Solubility of electron donor dye precursors in ethyl acetate; format: physicochemical
From the text: For reference, the following Table 1 lists electron donor dye precursor compounds, and includes the corresponding solubility in ethyl acetate, which are used in the following examples.

| Compound | Solubility in ethyl acetate |
| --- | --- |
| CCCCCCOc1ccc2c(c1)Oc1cc(OCCCCCC)ccc1C21OC(c2cccs2)=Nc2ccccc21 [Sample D-5] | 20 g/100 grams |
| CCN(CC)c1ccc2c(c1)Oc1cc(C)ccc1C21OC(=O)c2ccccc21 [Sample D-2] | 5 g/100 grams |
| CCN(CC)c1ccc2c(c1)Oc1cc(C)c(Nc3ccccc3)cc1C21OC(=O)c2ccccc21 [Sample D-3] | 4 g/100 grams |

— patent US20070098900A1, “Media providing non-contacting formation of high contrast marks and method of using same, composition for forming a laser-markable coating, a laser-markable material and process of forming a marking” (FUJI HUNT PHOTOGRAPHIC CHEMICALS, INC., priority 2004, published 2007)
